Laboratory results from article PMC11013284, “Chemoselective Synthesis and Anti-Kinetoplastidal Properties of 2,6-Diaryl-4H-tetrahydro-thiopyran-4-one S-Oxides: Their Interplay in a Cascade of Redox Reactions from Diarylideneacetones” (Molecules, 2024).
Where two headings read alike, the source gives them in different places.

Assays:
[1] = tested on: Trypanosoma cruzi (Tulahuen CL2 β-galactosidase) amastigotes in hMRC-5SV2 cells; assay: T. cruzi intracellular amastigote assay (β-galactosidase/CPRG); format: cell-based; conditions: intracellular amastigotes, 7 days; for IC50: read-out: IC50 T. cruzi intramacrophage amastigotes (converted)
Protocol: A nifurtimox-sensitive strain (Tulahuen CL2 β-galactosidase) in human lung fibroblast hMRC-5SV2 cells was incubated for 7 days in 96-well plates with five concentrations of compound (64, 16, 4, 1, and 0.25 μM). The parasitic burden was evaluated through the activity of the enzyme β-galactosidase on a specific chlorophenol red ß-D-galactopyranoside (CPRG) substrate. Live parasites converted the yellow-orange CPRG substrate into the red chromophore chlorophenol red, yielding a dark-red solution, which could be quantitatively measured at 540 nm after 4 h of incubation at 37 °C. The results were expressed as a percentage reduction in parasite growth/viability compared to control wells, and an IC50 was calculated.

[2] = tested on: Trypanosoma brucei brucei trypomastigotes, suramin-sensitive strain (Squib 427); assay: T. b. brucei growth/viability assay (resazurin); format: cell-based; conditions: 3 days
Protocol: After 3 days, parasite growth was assessed fluorimetrically following the addition of resazurin. After 24 h at 37 °C, fluorescence was measured (λex = 550 nm, λem = 590 nm). The results were expressed as a percentage reduction in parasite growth/viability compared to control wells, and a 50% inhibitory concentration (IC50) was calculated.

[3] = tested on: L. infantum (MHOM/MA(BE)/67) amastigotes in primary peritoneal mouse macrophages; assay: L. infantum intramacrophage amastigote assay (microscopic burden); format: cell-based, Leishmania infantum; conditions: 5 days, mouse macrophages as host
Protocol: L. infantum (MHOM/MA(BE)/67 strain) amastigote were incubated for 5 days in 96-well plates with five concentrations of compound (64, 16, 4, 1, and 0.25 μM). Primary peritoneal mouse macrophages were used as host cells. Parasite burdens (i.e., the number of amastigotes per macrophage) were microscopically assessed. The results were expressed as a percentage reduction in parasite burden compared to untreated control wells, and an IC50 was calculated.

[4] = tested on: human diploid embryonic lung fibroblast hMRC-5SV2 cells; assay: in vitro
Protocol: (§1) The cytotoxicity of compounds was evaluated toward human diploid embryonic lung fibroblast hMRC-5SV2 cells, derived from fetal lung tissue and first described in 1970. hMRC-5SV2 cells were cultured in 96-well plates with five concentrations of the compound (64, 16, 4, 1, and 0.25 μM). After 3 days of incubation, the cell viability was assessed fluorimetrically after the addition of resazurin, and fluorescence was measured (λex = 550 nm, λem = 590 nm). The results were expressed as a percentage reduction in cell growth/viability compared to control wells, and a 50% cytotoxic concentration (CC50) was calculated. The reference cytotoxic drugs were tamoxifen or ivermectin. Additionally, toxicity toward mouse macrophages was qualitatively observed. Three concentrations were included (64, 16, and 4 µM), and the range of toxicity was ranked from the least toxic to the most toxic compound.

[5] = tested on: WT LV9 L. donovani intramacrophage amastigotes; assay: L. donovani intramacrophage amastigote assay; format: cell-based, Leishmania donovani; conditions: WT LV9, ± SD in Tables S5/S6, read-out: IC50 L. donovani intramacrophage amastigotes
in vitro = conditions: human, CC50 hMRC-5 (cytotoxicity)
Protocol: as §1

[6] = Trypanosoma cruzi, TULAHUEN, 168 h

SMILES | IC50 [1] [µM] | IC50 [2] [µM] | IC50 [3] [µM] | CC50 [4] [µM] | also measured
CC1CS(=O)(=O)CCN1/N=C/c1ccc([N+](=O)[O-])o1 (centres unmarked) [Nifurtimox, nifurtimox, reference compound] | – | – | – | – | IC50 [1, 6]: 0.845 ± 0.2 µM
O=C(/C=C/c1ccccc1)/C=C/c1ccncc1 [1’o] | ≤ 0.2 | ≤ 0.2 | 0.5 | 2 | –
N#Cc1ccc(/C=C/C(=O)/C=C/c2ccccc2)cc1 [1’l] | 3.3 | ≤ 0.2 | 7 | 38.7 | –
COc1cc(/C=C/C(=O)/C=C/c2ccc(O)c(OC)c2)ccc1O [1i] | 1 | ≤ 0.3 | ≥ 32 | 1.1 | –
C=CCOc1ccc(/C=C/C(=O)/C=C/c2ccc(OCC=C)c(OC)c2)cc1OC [1k] | 36.9 | 6.8 | > 64 | > 64 | –
CCCCCCCCCCCCCCCCOP(=O)([O-])OCC[N+](C)(C)C [miltefosine, Hexadecyl-Phosphoryl-Choline, reference compound] | – | – | – | – | IC50 ([5]; Leishmania donovani): 19.1 ± 0.1 µM
O=C1C[C@@H](c2ccc(F)cc2)S[C@@H](c2ccc(F)cc2)C1 [2’g] | 1.4 | 2.1 | 2.1 | 6.4 | –
CN(C)c1ccc(/C=C/C(=O)/C=C/c2ccc(F)cn2)cc1 [1’q] | > 64 | 13.3 | 32.5 | 32.2 | –
O=C(/C=C/c1ccccc1)/C=C/c1ccccn1 [1’n] | 0.5 | ≤ 0.2 | 1.3 | 1.5 | –
O=C(Cn1ccnc1[N+](=O)[O-])NCc1ccccc1 [benznidazole, reference compound] | – | – | – | – | IC50 [1, 6]: 1.93 µM
O=C1C[C@@H](c2ccccc2Cl)S[C@@H](c2ccccc2Cl)C1 [2’e] | 35 | 37.6 | > 64 | > 64 | –
CC[C@H](C)[C@H]1O[C@]2(CC[C@@H]1C)C[C@@H]1C[C@@H](C/C=C(\C)[C@@H](O[C@H]3C[C@H](OC)[C@@H](O[C@H]4C[C@H](OC)[C@@H](O)[C@H](C)O4)[C@H](C)O3)[C@@H](C)/C=C/C=C3\CO[C@@H]4[C@H](O)C(C)=C[C@@H](C(=O)O1)[C@]34O)O2 [ivermectine, ivermectin, reference compound] | – | – | – | – | CC50 ([4]; read-out: CC50 hMRC-5 (cytotoxicity), human hMRC-5SV2 fibroblasts, 3 days): 3.5 µM
Cc1ccc(C(=O)Nc2ccc(S(=O)(=O)O)c3cc(S(=O)(=O)O)cc(S(=O)(=O)O)c23)cc1NC(=O)c1cccc(NC(=O)Nc2cccc(C(=O)Nc3cc(C(=O)Nc4ccc(S(=O)(=O)O)c5cc(S(=O)(=O)O)cc(S(=O)(=O)O)c45)ccc3C)c2)c1 [Suramin, suramin, reference compound] | – | 0.03 | – | – | –
CN(C)c1ccc(/C=C/C(=O)/C=C/c2ccc(C(F)(F)F)cc2)cc1 [1’c] | 31.7 | 9.2 | 8 | > 64 | –
O=C(/C=C/c1ccccc1)/C=C/c1ccc(C(F)(F)F)cc1 [1’b] | 33.8 | 2.2 | > 64 | > 64 | –
COc1ccc(C2CC(=O)CC(c3ccc(OC)cc3)[S+]2[O-])cc1 (stereo not drawn) [3′d, (anti)- and (syn)-cis-2,6-Di-(p-anisyl)-4H-tetrahydro-thiopyran-4-one 1-oxides] | ≥ 64 | 2.3 | ≥ 64 | – | IC50 [5]: > 100 µM; IC50 T. cruzi intramacrophage amastigotes [1]: inactive; IC50 L. infantum intramacrophage amastigotes [3]: inactive; CC50 ([4]; human, 3 days): ≥ 64 µM
COc1cc([C@@H]2CC(=O)C[C@H](c3cc(OC)c(C)cc3OC)S2)c(OC)cc1C [2’o] | 37.2 | 32.5 | 5.1 | > 64 | –
O=C(/C=C/c1ccccc1)/C=C/c1ncccn1 [1’r] | ≤ 0.2 | ≤ 0.2 | 0.4 | 1.6 | –
CC/C(=C(\c1ccccc1)c1ccc(OCCN(C)C)cc1)c1ccccc1 [Tamoxifen, tamoxifen, reference compound] | – | – | – | – | CC50 at 3 days (in vitro): 9.12 µM
COc1cc(Br)c(OC)c([C@@H]2CC(=O)C[C@H](c3cc(OC)cc(Br)c3OC)S2)c1 [2’q] | 17.1 | 32.2 | 8.6 | > 64 | –
